From PMC6198970, “Safety, efficacy, and dose response of the maturation inhibitor GSK3532795 (formerly known as BMS-955176) plus tenofovir/emtricitabine once daily in treatment-naive HIV-1-infected adults: Week 24 primary analysis from a randomized Phase IIb trial” (PLoS ONE, 2018)
pEC50: −log10 of the molar value. “And” between values parts separate entries of the source, which are not always exact repeats. Equal entries are not always repeated. Where two headings read alike, the source gives them in different places.

Columns and labels:
HIV-1 [1] = experiment: Phase IIb study 205891: plasma HIV-1 RNA response at Week 24 (FDA snapshot, observed); format: in vivo, HIV-1-infected adults; conditions: Week 24, mITT; GSK3532795: range across 60, 120, 180 mg arms; EFV 600 mg; each + TDF/FTC
Procedure: The primary endpoint was determination of the proportion of participants with plasma HIV-1 RNA <40 copies/mL at Week 24 after treatment with GSK3532795 or efavirenz (EFV).
205891 was a Phase IIb, randomized, active-controlled, double-blind trial performed at 58 sites in 12 countries across South America, North America, South Africa, and Europe. Participants were randomized 1:1:1:1 to one of four treatment arms; GSK3532795 at doses of 60 mg, 120 mg or 180 mg once daily (QD), and one reference arm with EFV at a dose of 600 mg QD, each given in combination with TDF/FTC 300/200 mg QD.
Participants attended study visits at screening, on Day 1, and once every 4 weeks from Week 4 to Week 24 (telephonic visits were conducted at Week 20). Participants were expected to continue treatment, then, through Week 96, with visit intervals every 8–12 weeks. A post-dose safety follow-up visit was also conducted 12 weeks after treatment discontinuation. Plasma HIV-1 RNA levels were quantified by the Abbott RealTime HIV-1 assay.
The FDA-defined snapshot algorithm was used for primary endpoint efficacy assessment, using the last plasma HIV-1 RNA value in the pre-defined Week 24 visit window (± 6 weeks) to determine response. The modified intent-to-treat (mITT) population consisted of participants who received at least one dose of GSK3532795 or EFV. […]

HIV-1 [2] = experiment: Protocol-defined virologic failure and drug resistance testing (GenoSure MG, PhenoSense); format: in vivo, HIV-1-infected adults; conditions: through Week 24
Description: PDVF was defined as either: (1) confirmed HIV-1 RNA ≥40 copies/mL at any time after prior confirmed suppression to <40 copies/mL; or (2) a confirmed >1 log10 copies/mL above the nadir level. Genotypic information required for screening was generated using the GenoSure® MG assay; genotypic information and phenotypic observations during the treatment period were generated using the PhenoSense® combination resistance test.

[3] = Intensive PK, non-compartmental analysis and dose proportionality; format: in vivo, HIV-1-infected adults
Procedure: Due to the EFV component of the blinded drug regimens, administration of study drug required both morning and evening dosing,12 hours apart. […] All bioanalytical analyses were conducted by PPD® Laboratories using validated high-performance liquid chromatography/mass spectroscopy assays. Intensive plasma GSK3532795 concentrations were analyzed by non-compartmental analysis using the actual sampling times in WinNonlin version 6.3.0 (Pharsight, St. Louis, Missouri, USA). […] To assess the dose proportionality of GSK3532795 when co-administered with TDF/FTC, a mixed-effect model with log-transformed dose as the fixed effect and each participant as the random effect was used to fit a power model in SAS version 9.1.3.

[4] = system: 23 isolates of subtype C viruses; parameters: method as in protocol Section 1.4.1.2; conditions: 23 subtype C isolates; ref protocol Section 1.4.1.2; read-out: EC50, median; cited from earlier work
[5] = parameters: method as in protocol Section 1.4.1.2; conditions: 100% human serum; ref protocol Section 1.4.1.2; listed as BMS-955176; cited from earlier work
[6] = parameters: method as in protocol Section 1.4.1.2; conditions: ref protocol Section 1.4.1.2; cited from earlier work
CYPs = system: CYPs; parameters: method as in protocol Section 1.4.1.2; conditions: ref protocol Section 1.4.1.2; cited from earlier work
[7] = parameters: method as in protocol Section 1.4.1.2; conditions: ref protocol Section 1.4.1.2; cited from earlier work; remark: listed apart in the source
[8] = parameters: method as in protocol Section 1.4.1.2; conditions: 80 mg/kg/day, ref protocol Section 1.4.1.2, cited from earlier work
[9] = system: reverse transcriptase (RT), protease, and integrase inhibitor-resistant viruses; conditions: cited from earlier work
[10] = cited from earlier work

SMILES: C=C(C)[C@@H]1CC[C@]2(NCCN3CCS(=O)(=O)CC3)CC[C@]3(C)[C@H](CC[C@@H]4[C@@]5(C)CC=C(c6ccc(C(=O)O)cc6)C(C)(C)[C@@H]5CC[C@]43C)[C@@H]12 [GSK3532795]
- Participants achieving HIV-1 RNA <40 copies/mL (HIV-1 [1]): 76–83%
- Rate of protocol-defined virologic failure (PDVF) (HIV-1 [2]; 60 mg arm): 12% (6/50)
- Rate of protocol-defined virologic failure (PDVF) (HIV-1 [2]; 120 mg arm): 10% (5/52)
- Rate of protocol-defined virologic failure (PDVF) (HIV-1 [2]; 180 mg arm): 6% (3/51)
- Increase in systemic exposure with dose ([3]; dose range 60–180 mg, with food and TDF/FTC): less than dose-proportional
- Time at which median steady-state plasma concentrations reached peak ([3]; multiple doses 60, 120 or 180 mg with food and TDF/FTC): 4–5 hours post-dose
- pEC50 [4]: 8.25
- Protein binding [5]: 86% and 86.1%
- Route of elimination [6]: eliminated principally via metabolism followed by excretion in bile with little renal excretion
- Tissue distribution [6]: distributed preferentially into the duodenum, liver, and lymph nodes with little penetration into the brain
- Time-dependent inhibition of CYPs (CYPs): No
- Phototoxicity, mutagenicity, clastogenicity in vitro [7]: not phototoxic, mutagenic, or clastogenic
- AUC [8]: 3.26 gh/mL
- Developmental toxicity classification ([8]; rabbits): not a developmental toxicant
- Activity against RT, protease, and integrase inhibitor-resistant viruses ([9]; EC50 values similar to wild-type, ref protocol Section 1.4.1.2): retains complete activity
- Activity against a panel of PI-resistant isolates from PI-treated subjects ([9]; major and minor PI-resistance determinants in protease and Gag): maintained activity
- AUC at developmental NOAEL ([10]; 30 mg/kg/day, ref protocol Section 1.4.1.2): 114 gh/mL
- Developmental NOAEL ([10]; rat, in vivo): 30 mg/kg/day
- Developmental toxicity classification ([10]; rats, ref protocol Section 1.4.1.2): not a selective developmental toxicant
